“Also recorded” adds a separate entry of the source. Blank lines part the entries; values can stand above or below the compound they belong to.
Experiments:
[1] = target: T1, PFKP (Homo sapiens, UniProt Q01813); assay: PFKP functional assay; assay type: biochemical; conditions: WT-PFKP
T1 construct: Flag; expressed in transfected cells; host or cells: HEK 293T, transient transfection, soluble lysate; cDNA clone 5180268 (Dharmacon)
T1 sequence (Q01813 1-784): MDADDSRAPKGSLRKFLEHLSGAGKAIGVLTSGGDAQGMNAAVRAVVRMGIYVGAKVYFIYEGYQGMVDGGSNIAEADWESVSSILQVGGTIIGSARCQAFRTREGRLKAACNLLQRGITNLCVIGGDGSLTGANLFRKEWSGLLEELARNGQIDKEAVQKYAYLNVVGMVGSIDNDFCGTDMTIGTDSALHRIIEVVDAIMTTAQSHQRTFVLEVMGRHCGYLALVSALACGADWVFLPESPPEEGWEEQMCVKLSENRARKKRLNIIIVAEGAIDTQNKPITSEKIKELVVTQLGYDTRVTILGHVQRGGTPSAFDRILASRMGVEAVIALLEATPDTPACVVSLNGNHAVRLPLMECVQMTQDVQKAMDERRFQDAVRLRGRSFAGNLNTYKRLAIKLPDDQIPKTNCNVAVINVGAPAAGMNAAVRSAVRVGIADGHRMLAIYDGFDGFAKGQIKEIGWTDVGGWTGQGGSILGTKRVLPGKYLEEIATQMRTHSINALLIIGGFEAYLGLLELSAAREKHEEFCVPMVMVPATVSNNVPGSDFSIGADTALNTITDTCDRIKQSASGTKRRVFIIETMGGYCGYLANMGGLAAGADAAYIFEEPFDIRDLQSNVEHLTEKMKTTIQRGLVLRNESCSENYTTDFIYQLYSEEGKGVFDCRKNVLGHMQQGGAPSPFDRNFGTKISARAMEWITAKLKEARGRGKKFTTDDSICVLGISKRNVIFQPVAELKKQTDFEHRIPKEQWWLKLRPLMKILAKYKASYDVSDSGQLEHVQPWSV
Experimental: PFKP functional assay. For inhibitor experiments, 50 μl of soluble proteome (initial total protein concentration: 1 mg ml^−1) from HEK 293T cells expressing PFKP (WT or K688R mutant) or mock transfected cells (empty vector; negative control) were incubated with 1 μl 50× of the compound in DMSO or DMSO for the positive or negative control for 1 h at room temperature. Lysates were diluted 40× with dilution buffer (PBS containing 0.2 mg ml^−1 BSA and 5 mM MgCl2) and 40 μl were added into a clear bottom 384 well plate. 10 μl of a mixture of 3.5 μl PBS, 2.5 μl fructose-6-phosphate (100 mM), 1 μl NADH (20 mM), 1 μl ATP (50 mM), 1 μl aldolase (50 U ml^−1) and 1 μl GDH/TPI (500 U ml^−1 TPI, 50 U ml^−1 GDH) were added to start the reaction. The absorbance of NADH was measured at 340 nm every minute for 30 min.
Calculation of relative activity or percent inhibition. For PNPO, PFKP, NUDT2 and G6PD, the slope of the linear regression of the linear portion of the absorbance or fluorescence over time was used as measure their activity. Apparent activity was calculated relative to the WT. Percent inhibition was calculated relative to the positive and negative control and used to calculate IC50 values by nonlinear regression analysis from a dose-response curve generated using GraphPad Prism 7.

[2] = target: T1, PFKP; assay: competitive gel-based ABPP, apparent IC50; assay type: binding; conditions: read-out: apparent IC50, blockade of probe labeling of recombinant PFKP
Experimental: (§1) Recombinant expression of proteins by transient transfection. HEK 293T cells were grown to 50% confluency in 10 ml DMEM supplemented with 10% fetal bovine serum (FBS), penicillin, streptomycin and glutamine in 10 cm tissue culture dishes. 3 μg of DNA was diluted in 500 μL DMEM and 30 μL of PEI (MW 40,000, 1 mg ml^−1, Polysciences) were added. The mixture was incubated at room temperature for 30 min and added dropwise to the cells. Cells were grown for 48 h at 37° C. with 5% CO2. Cells were washed with cold PBS, scraped with cold PBS and cell pellets were isolated by centrifugation (1,400 g, 3 min, 4° C.), and stored at −80° C. until use. Cell pellets were resuspended in PBS, lysed by sonication and fractionated (100,000 g, 45 min) to yield soluble and membrane fractions. The soluble fraction was adjusted to a final protein concentration of 1 mg ml^−1 for gel-based ABPP experiments.
(§2) Competitive gel-based ABPP and apparent IC50 values. 50 μl of soluble proteome (1 mg ml^−1) expressing the indicated protein were treated with fragment electrophiles (1 μl of 50× stock solution in DMSO) at ambient temperature for 1 h. The indicated probe (fluorophore or alkyne-containing, 1 μl of a 500 μM solution, final concentration=10 μM) was then added and allowed to react for an additional 1 h. CuAAC and in-gel fluorescence analysis were performed as described above. For quantification of inhibition and apparent IC50 determination, the percentage of labeling was determined by quantifying the integrated optical intensity of the bands using ImageLab 5.2.1 software (BioRad). Nonlinear regression analysis was used to determine the IC50 values from a dose-response curve generated using GraphPad Prism 7.

[3] = target: T2, Flag-tagged SIN3A (a.a. 1-400) (Homo sapiens, UniProt Q96ST3); assay: competitive gel-based ABPP, apparent IC50; assay type: binding; conditions: probe 17, HEK293T cell lysates
T2 construct: expressed in transfected cells; host or cells: HEK 293T, transient transfection, lysate
Experimental: as §1, §2

[4] = target: T3, NUDT2 (Homo sapiens, UniProt P50583); assay: competitive gel-based ABPP, apparent IC50; assay type: binding
T3 construct: expressed in transfected cells; host or cells: HEK 293T, transient transfection, soluble lysate; synthesized gene (IDT)
Experimental: as §1, §2

[5] = target: T4, PNPO (Homo sapiens, UniProt Q9NVS9); assay: competitive gel-based ABPP, apparent IC50; assay type: binding; conditions: read-out: apparent IC50, blockade of probe labeling of K100 in PNPO
T4 construct: Flag; expressed in transfected cells; host or cells: HEK 293T, transient transfection, soluble lysate
T4 sequence (Q9NVS9 1-261): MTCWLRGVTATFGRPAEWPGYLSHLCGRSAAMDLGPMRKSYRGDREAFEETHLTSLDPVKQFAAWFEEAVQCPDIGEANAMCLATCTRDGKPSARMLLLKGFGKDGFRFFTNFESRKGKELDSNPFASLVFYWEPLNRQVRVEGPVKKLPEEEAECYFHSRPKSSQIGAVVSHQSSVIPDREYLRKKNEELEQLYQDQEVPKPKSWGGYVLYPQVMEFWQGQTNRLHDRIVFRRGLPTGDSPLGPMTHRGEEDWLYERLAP
Experimental: as §1, §2

T2 sequence (Q96ST3 1-400): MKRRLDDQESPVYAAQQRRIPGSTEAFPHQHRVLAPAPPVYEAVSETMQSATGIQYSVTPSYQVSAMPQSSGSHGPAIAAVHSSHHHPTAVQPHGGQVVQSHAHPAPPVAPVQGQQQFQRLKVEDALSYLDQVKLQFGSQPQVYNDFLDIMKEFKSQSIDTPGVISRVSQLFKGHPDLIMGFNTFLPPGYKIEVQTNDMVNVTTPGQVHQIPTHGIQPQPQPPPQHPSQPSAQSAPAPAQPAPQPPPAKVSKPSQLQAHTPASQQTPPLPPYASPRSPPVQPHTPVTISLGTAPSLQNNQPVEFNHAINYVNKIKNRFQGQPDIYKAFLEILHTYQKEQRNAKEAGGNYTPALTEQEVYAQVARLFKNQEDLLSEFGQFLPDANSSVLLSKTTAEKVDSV
T3 sequence (P50583 whole entry): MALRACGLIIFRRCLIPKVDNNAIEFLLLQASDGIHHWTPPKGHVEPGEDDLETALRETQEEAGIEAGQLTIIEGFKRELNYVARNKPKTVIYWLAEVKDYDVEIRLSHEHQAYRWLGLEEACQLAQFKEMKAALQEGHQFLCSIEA

IC50 ([1]; enzyme-coupled assay, read-out: apparent IC50, inhibition of PFKP activity): 2900 nM
maximal inhibitory effect, reduction in substrate turnover ([1]; plateau): about 80%
IC50 [2]: 2000 nM
Structure (SMILES): O=C(Oc1c(F)c(F)c(F)c(F)c1F)C(c1ccccc1)c1ccccc1 [fragment 20, Pentafluorophenyl 2,2-diphenylacetate]

IC50 ([3]; read-out: apparent IC50, blockade of probe labeling of K155): 5 µM
Structure (SMILES): O=C(Oc1c(F)c(F)c(F)c(F)c1F)c1cc(C(F)(F)F)cc(C(F)(F)F)c1 [fragment 21, Pentafluorophenyl 3,5-bis(trifluoromethyl)benzoate]
blockade of probe labeling of K155 [3]: site-specific and complete blockade of probe labeling of K155; also recorded: blocks probe 17 labeling of SIN3A at K155 in a concentration-dependent manner

blockade of probe 1-labeling of K89 in NUDT2 ([4]; FIG. 11G): quantitatively blocked
IC50 ([4]; gel-based ABPP, read-out: apparent IC50, blockade of probe labeling of NUDT2): 2000 nM
Structure (SMILES): COC(=O)NC(=NC(=O)OCC1c2ccccc2-c2ccccc21)n1cccn1 [fragment 49, N-Methoxycarbonyl-N′-9-fluorenylmethoxycarbonyl-pyrazole-1-carboxamidine]

IC50 [5]: 3 µM
Structure (SMILES): O=C(CCc1cn(-c2ccccc2)nc1-c1ccccc1)Oc1c(F)c(F)c(F)c(F)c1F [fragment 19, Pentafluorophenyl 3-(1,3-diphenyl-1H-pyrazol-4-yl)propanoate]

From patent US20210255193A1, “LYSINE REACTIVE PROBES AND USES THEREOF” (The Scripps Research Institute, priority 2017, published 2021)
